Laboratory results: patent publication US11939314B2, “Quinolin-2-one derivatives” (MERCK PATENT GMBH, priority 2016, dated 2024)
pIC50: −log10 of the molar value. Where a name gives a salt, the structure may show the parent alone.

Tests used:
[1] = target: T1, c-Kit(V654A) (Homo sapiens, UniProt P10721, V654A); experiment: c-Kit(V654A) assay; format: biochemical; conditions: recombinant human c-Kit aa 544-end, 200 μM ATP, 1.4E-06 means 1.4×10^−6, read-out: Inhibition (IC50) of c-KIT (V654A)
T1 construct: amino acids 544-end containing the V654A mutation; GST (N)
T1 sequence (P10721 544-976 V654A): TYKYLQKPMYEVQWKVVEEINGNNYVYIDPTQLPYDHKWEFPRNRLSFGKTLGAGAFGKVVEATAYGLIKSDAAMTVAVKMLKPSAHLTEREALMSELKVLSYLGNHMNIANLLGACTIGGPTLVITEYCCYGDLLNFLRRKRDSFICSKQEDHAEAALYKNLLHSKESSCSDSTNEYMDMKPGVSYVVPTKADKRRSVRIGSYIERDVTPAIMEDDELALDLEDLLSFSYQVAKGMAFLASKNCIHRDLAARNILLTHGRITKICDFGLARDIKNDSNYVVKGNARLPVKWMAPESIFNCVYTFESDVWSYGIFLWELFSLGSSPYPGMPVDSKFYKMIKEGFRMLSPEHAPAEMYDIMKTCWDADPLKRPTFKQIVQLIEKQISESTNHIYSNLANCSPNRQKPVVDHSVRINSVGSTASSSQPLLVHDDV
Procedure, shortened: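 Radiometric filter-binding read-out: substrate 33P incorporation counted by scintillation after P30 filtermat washes in 75 mM phosphoric acid and methanol. Enzyme: N-GST recombinant human c-Kit aa 544-end carrying V654A.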

[2] = target: T2, PDGFRalpha(V561D) (Homo sapiens, UniProt P16234, V561D); experiment: PDGFRalpha(V561D) assay; format: biochemical; conditions: recombinant human PDGFRalpha aa 550-end, 200 μM ATP, 1.4E-06 means 1.4×10^−6, read-out: Inhibition (IC50) of PDGFRα (V561D)
T2 construct: recombinant human PDGFRalpha, amino acids 550end containing the V561 D mutation; 6His (N)
T2 sequence (P16234 550-1089 V561D): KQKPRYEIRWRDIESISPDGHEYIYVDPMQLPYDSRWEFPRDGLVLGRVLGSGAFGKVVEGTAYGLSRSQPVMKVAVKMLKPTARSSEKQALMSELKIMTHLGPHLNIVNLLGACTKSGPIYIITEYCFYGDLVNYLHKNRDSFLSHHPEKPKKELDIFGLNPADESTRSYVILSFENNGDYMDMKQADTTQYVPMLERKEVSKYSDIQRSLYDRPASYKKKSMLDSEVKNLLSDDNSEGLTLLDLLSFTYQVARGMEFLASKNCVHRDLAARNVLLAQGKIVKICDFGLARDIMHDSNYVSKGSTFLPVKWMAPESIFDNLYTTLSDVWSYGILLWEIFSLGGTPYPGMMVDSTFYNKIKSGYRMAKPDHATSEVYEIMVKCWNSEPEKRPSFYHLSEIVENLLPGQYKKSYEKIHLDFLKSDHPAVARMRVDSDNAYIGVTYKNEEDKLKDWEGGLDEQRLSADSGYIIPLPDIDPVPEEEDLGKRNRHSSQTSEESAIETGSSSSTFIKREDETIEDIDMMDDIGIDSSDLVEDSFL
Procedure, shortened: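 Radiometric filter-binding assay: substrate phosphorylation by recombinant N-His-tagged human PDGFRα 550-end V561D was quenched with 3% phosphoric acid after 40 min at room temperature, then counted.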

| Structure (SMILES) | pIC50 [1] | pIC50 [2] |
| --- | --- | --- |
| CC(=O)N(C)c1ccc(-n2cc(-c3cc4cc(F)ccc4[nH]c3=O)nn2)cc1 [A353, N-{4-[4-(6-fluoro-2-oxo-1,2-dihydro-quinolin-3-yl)-[1,2,3]triazol-1-yl]-phenyl}-N-methyl-acetamide] | 7.03 | 6.72 |
| CN1CCN(C(=O)c2ccc(-n3cc(-c4cc5cc(F)ccc5[nH]c4=O)cn3)cc2)CC1 [A296, 6-fluoro-3-{1-[4-(4-methyl-piperazine-1-carbonyl)-phenyl]-1H-pyrazol-4-yl}-1H-quinolin-2-one] | 7.42 | 7.85 |
| O=C(c1ccc(-n2cc(-c3cc4cc(Cl)ccc4[nH]c3=O)nn2)cc1)N1CCC2(COC2)C1 [A257, 6-chloro-3-{1-[4-(2-oxa-6-aza-spiro[3.4]octane-6-carbonyl)-phenyl]-1H-[1,2,3]triazol-4-yl}-1H-quinolin-2-one] | 7.57 | 8.43 |
| CO[C@H]1CN(C(=O)c2ccc(-n3cc(-c4cc5cc(F)ccc5[nH]c4=O)nn3)cc2)C[C@H]1OC [A237, 3-{1-[4-((3R,4S)-3,4-dimethoxy-pyrrolidine-1-carbonyl)-phenyl]-1H-[1,2,3]triazol-4-yl}-6-fluoro-1H-quinolin-2-one] | 7.09 | 6.31 |
| CN1CCN(C(=O)COc2ccc(-n3cc(-c4cc5cc(F)c(F)cc5[nH]c4=O)nn3)cc2)CC1 [A167, 6,7-difluoro-3-(1-{4-[2-(4-methyl-piperazin-1-yl)-2-oxo-ethoxy]-phenyl}-1H-[1,2,3]triazol-4-yl)-1H-quinolin-2-one] | 7.74 | 7.68 |
| CN1CCN(C(=O)c2ccc(-n3cc(-c4cc5ccc(C(F)(F)F)cc5[nH]c4=O)nn3)cc2)CC1 [A170, 3-{1-[4-(4-methyl-piperazine-1-carbonyl)-phenyl]-1H-[1,2,3]triazol-4-yl}-7-trifluoromethyl-1H-quinolin-2-one] | 5.74 | 4.92 |
| N[C@@H]1[C@H]2CN(C(=O)c3ccc(-n4cc(-c5cc6cc(F)ccc6[nH]c5=O)nn4)cc3)C[C@@H]12 [A317, 3-{1-[4-(6-amino-3-aza-bicyclo[3.1.0]hexane-3-carbonyl)-phenyl]-1H-[1,2,3]triazol-4-yl}-6-fluoro-1H-quinolin-2-one] | 6.92 | 5.85 |
| O=C(c1ccc(-n2cc(-c3cc4cc(F)ccc4[nH]c3=O)nn2)cc1)N1CCN[C@@H](CO)C1 [A314, 6-fluoro-3-{1-[4-((R)-3-hydroxymethyl-piperazine-1-carbonyl)-phenyl]-1H-[1,2,3]triazol-4-yl}-1H-quinolin-2-one hydrochloride] | 7.14 | 6.74 |
| CN1CCC(C(=O)c2ccc(-n3cc(-c4cc5cc(F)ccc5[nH]c4=O)nn3)cc2)CC1 [A161, 6-fluoro-3-{1-[4-(1-methyl-piperidine-4-carbonyl)-phenyl]-1H-[1,2,3]triazol-4-yl}-1H-quinolin-2-one] | 7.46 | 7.82 |
| O=C(c1ccc(-n2cc(-c3cc4cc(F)ccc4[nH]c3=O)nn2)cc1)N1CCC(N2CCCC2)C1 (stereo not drawn) [A100, 3-{1-[4-([1,3′]bipyrrolidinyl-1′-carbonyl)-phenyl]-1H-[1,2,3]triazol-4-yl}-6-fluoro-1H-quinolin-2-one] | 7.70 | 7.20 |
| CN1CCN(c2ccc(-n3cc(-c4cc5cc(F)ccc5[nH]c4=O)nn3)cc2)CC1 [A70, 6-fluoro-3-{1-[4-(4-methyl-piperazin-1-yl)-phenyl]-1H-[1,2,3]triazol-4-yl}-1H-quinolin-2-one] | 7.85 | 8.30 |
| Cc1cc2[nH]c(=O)c(-c3cn(-c4ccc(C(=O)N5CCN(C)CC5)cc4)nn3)cc2cc1F [A222, 6-fluoro-7-methyl-3-{1-[4-(4-methyl-piperazine-1-carbonyl)-phenyl]-1H-[1,2,3]triazol-4-yl}-1H-quinolin-2-one] | 7.14 | 6.68 |
| O=C(c1ccc(-n2cc(-c3cc4cc(F)ccc4[nH]c3=O)nn2)cc1)N1C[C@H](O)C[C@H]1CO [A227, 6-fluoro-3-{1-[4-((2S,4R)-4-hydroxy-2-hydroxymethyl-pyrrolidine-1-carbonyl)-phenyl]-1H-[1,2,3]triazol-4-yl}-1H-quinolin-2-one] | 7.04 | 6.85 |
| O=C(c1ccc(-n2cc(-c3cc4cc(F)ccc4[nH]c3=O)nn2)cc1)N1CCCC1 [A273, 6-fluoro-3-{1-[4-(pyrrolidine-1-carbonyl)-phenyl]-1H-[1,2,3]triazol-4-yl}-1H-quinolin-2-one] | 7.40 | 8.39 |
| O=C(c1ccc(-n2cc(-c3cc4cc(F)ccc4[nH]c3=O)nn2)cc1)N1CCC(OCCN2CCOCC2)C1 (stereo not drawn) [A209, 6-fluoro-3-(1-{4-[3-(2-morpholin-4-yl-ethoxy)-pyrrolidine-1-carbonyl]-phenyl}-1H-[1,2,3]triazol-4-yl)-1H-quinolin-2-one] | 7.28 | 6.24 |
| COc1cccc(-n2cc(-c3cc4ccccc4[nH]c3=O)nn2)c1 [A24, 3-[1-(3-methoxy-phenyl)-1H-[1,2,3]triazol-4-yl]-1H-quinolin-2-one] | 6.96 | 7.59 |
| Cc1ccc2[nH]c(=O)c(-c3cn(-c4ccc(C(=O)N5CCN(C)CC5)cc4)nn3)cc2c1 [A168, 6-methyl-3-{1-[4-(4-methyl-piperazine-1-carbonyl)-phenyl]-1H-[1,2,3]triazol-4-yl}-1H-quinolin-2-one] | 7.43 | 7.00 |
| CO[C@@H]1CCCN(C(=O)c2ccc(-n3cc(-c4cc5cc(F)c(F)cc5[nH]c4=O)nn3)cc2)C1 [A192, 6,7-difluoro-3-{1-[4-((R)-3-methoxy-piperidine-1-carbonyl)-phenyl]-1H-[1,2,3]triazol-4-yl}-1H-quinolin-2-one] | 6.64 | 6.70 |
| COC[C@@H]1CCCN1C(=O)c1ccc(-n2cc(-c3cc4cc(Cl)ccc4[nH]c3=O)nn2)cc1 [A253, 6-chloro-3-{1-[4-((S)-2-methoxymethyl-pyrrolidine-1-carbonyl)-phenyl]-1H-[1,2,3]triazol-4-yl}-1H-quinolin-2-one] | 7.36 | 7.68 |
| NC1CCN(C(=O)c2ccc(-n3cc(-c4cc5cc(F)ccc5[nH]c4=O)nn3)cc2)C1 (stereo in doubt) [A306, 3-{1-[4-((S)-3-amino-pyrrolidine-1-carbonyl)-phenyl]-1H-[1,2,3]triazol-4-yl}-6-fluoro-1H-quinolin-2-one] | 7.35 | 6.62 |
| O=C(c1ccc(-n2cc(-c3cc4ccc(Cl)cc4[nH]c3=O)nn2)cc1)N1CCOCC1 [A82, 7-chloro-3-{1-[4-(morpholine-4-carbonyl)-phenyl]-1H-[1,2,3]triazol-4-yl}-1H-quinolin-2-one] | 7.85 | 8.52 |
| CN(C)C(=O)c1ccc(-n2cc(-c3cc4cc(Cl)cnc4[nH]c3=O)nn2)cc1 [A11, 4-[4-(6-chloro-2-oxo-1,2-dihydro-[1,8]naphthyridin-3-yl)-[1,2,3]triazol-1-yl]-N,N-dimethyl-benzamide] | 6.66 | 7.59 |
| CN1CCN(CCOc2ccc(-n3cc(-c4cc5ccccc5[nH]c4=O)nn3)cc2)CC1 [A72, 3-(1-{4-[2-(4-methyl-piperazin-1-yl)-ethoxy]-phenyl}-1H-[1,2,3]triazol-4-yl)-1H-quinolin-2-one] | 7.96 | 8.40 |
| O=C(c1ccc(-n2cc(-c3cc4cc(F)ccc4[nH]c3=O)nn2)cc1)N1CCCCC1CO (stereo not drawn) [A214, 6-fluoro-3-{1-[4-(2-hydroxymethyl-piperidine-1-carbonyl)-phenyl]-1H-[1,2,3]triazol-4-yl}-1H-quinolin-2-one] | 7.14 | 7.10 |
| CCN(CC)CCN1CCN(C(=O)c2ccc(-n3cc(-c4cc5cc(F)c(F)cc5[nH]c4=O)nn3)cc2)CC1 [A189, 3-(1-{4-[4-(2-diethylamino-ethyl)-piperazine-1-carbonyl]-phenyl}-1H-[1,2,3]triazol-4-yl)-6,7-difluoro-1H-quinolin-2-one] | 6.96 | 6.37 |
| COCCOC[C@H]1CCN(C(=O)c2ccc(-n3cc(-c4cc5cc(F)c(F)cc5[nH]c4=O)nn3)cc2)C1 [A233, 6,7-difluoro-3-(1-{4-[(S)-3-(2-methoxy-ethoxymethyl)-pyrrolidine-1-carbonyl]-phenyl}-1H-[1,2,3]triazol-4-yl)-1H-quinolin-2-one] | 7.02 | 6.22 |
| O=C(c1ccc(-n2cc(-c3cc4ccc(C(F)(F)F)cc4[nH]c3=O)nn2)cc1)N1CCNCC1 [A142, 3-{1-[4-(piperazine-1-carbonyl)-phenyl]-1H-[1,2,3]triazol-4-yl}-7-trifluoromethyl-1H-quinolin-2-one] | 6.55 | 5.55 |
| CN1CCN(CCCOc2ccc(-n3cc(-c4cc5cc(F)c(F)cc5[nH]c4=O)nn3)cc2)CC1 [A162, 6,7-difluoro-3-(1-{4-[3-(4-methyl-piperazin-1-yl)-propoxy]-phenyl}-1H-[1,2,3]triazol-4-yl)-1H-quinolin-2-one] | 7.09 | 7.01 |
| CN(C)C(=O)c1ccc(-n2cc(-c3cc4cc(F)ccc4[nH]c3=O)nn2)cc1 [A18, 4-[4-(6-fluoro-2-oxo-1,2-dihydro-quinolin-3-yl)-[1,2,3]triazol-1-yl]-N,N-dimethyl-benzamide] | 7.82 | 8.30 |
| O=C1CNCCN1c1ccc(-n2cc(-c3cc4cc(F)c(F)cc4[nH]c3=O)nn2)cc1 [A145, 6,7-difluoro-3-{1-[4-(2-oxo-piperazin-1-yl)-phenyl]-1H-[1,2,3]triazol-4-yl}-1H-quinolin-2-one] | 7.66 | 6.74 |
